Values after ≈ are worked out from the molar mass of the structure shown. Marks after values point to notes of the source that are not given here. Numbered stars: 1 amine (or outer) side, 2 acyl side, 3 side chain; on linkers, the order of the positions; unused ones are H or OH. Bridge positions count the residues as written; N and C are the ends. Square brackets hold non-standard residues; d marks the D form. Peptide text beside a SMILES is read from it. Tyr(3-NO2) = N[C@@H](Cc1ccc(O)c([N+](=O)[O-])c1)C(=O)O; Glutaryl = O=C(CCCC(=O)[*:2])[*:1]; Orn = NCCC[C@H](N)C(=O)O
What was measured:
E. coli CCUG31246 = type: cell-based; conditions: CCUG31246, 16 h
Description: MICs were performed under the same growth conditions used for mode of action analysis following the guidelines issued by the Clinical Laboratory Standardization Institute (CLSI) with slight modifications. Serial two-fold dilutions of the peptides were prepared in 1:10 BHI in a sterile 96-well plate and subsequently inoculated with 5 × 10^5 CFU/mL of E. coli CCUG31246. […] The following MICs were obtained: C3: 512 μg/mL, L3: 64 μg/mL, and L3-K: 128 μg/mL. These concentrations were used for all mechanistic experiments. Polymyxin B was used as a positive control in all assays at a final concentration of 10 μg/mL.

[1] = tested on: Escherichia coli (CCUG 31246); test: Minimum microbicidal concentration (MMC99) assay; type: cell-based, E. coli; conditions: BHI diluted 1/100, 37 °C, median, n = 3
Description: (§1) The microbicidal activity of the synthetic peptides was assessed against S. aureus (ATCC 12600; American Type Culture Collection, Manassas, VA, USA), Escherichia coli (CCUG 31246; Culture Collection, University of Gothenburg, Sweden), and Candida albicans (ATCC 64549/CCUG31028) using an MMC assay, as described previously by […] et al. (specific details in Supporting Information, pages 10, 11).[28] The assay was performed in BHI diluted 1/100 (BHI100). […] page 11: Table S5. Energy and structural ensembles of synthesized peptides. […] Energy -3887.06 -3620.88 -4968.42 -2163.76 -2646.75 Van der Waals solv. Energy 117.32 91.57 183.20 -88.88 -139.89 Mean RMSD* (Å), mean±SD […] Heavy atoms 1.87 ± 0.33 1.77 ± 0.50 0.98 ± 0.34 0.63 ±0.22 2.88 ±0.62 MMC99 activity including salt stability measurements Antimicrobial activity of L2 and L3 in the presence of NaCl. 1Table S6. Peptide MMC99 (μg/ml) sin NaCl S. aureus E.coli C. albicans (mM) 2[…] 0 50 25 25 85 - - - - - - >200 >200 >200 150 - - - - - - >200 >200 >200 3L 0 12.5 12.5 25 12,5 6.3 6.3 12.5 6.3 12.5 […] 150 >400 >400 (-)2 >400 >400 >400 >200 >200 >200 […] or 150 mM NaCl. L2 and L3 were serially diluted in twofold steps with a starting dilution of 200 μg/ml […] All sample dilutions were run in duplicates (L2) or triplicates (L3). 2 The growth of S. aureus at 24 h in BHI 100 with 85 or 150 mM NaCl was reduced. Minimum microbicidal concentration (MMC), killing 99% of the inoculum. All microorganisms were cultured in brain-heart infusion broth (BHI) overnight on a shaker at 37°C. The cultures were thereafter transferred to fresh BHI broth in volumes constituting 10% of total, and incubated for an additional 2 h to reach exponential growth phase. The bacterial cultures were washed once in BHI diluted 1/100 (BHI100), followed by resuspension in BHI100. The cell suspensions were diluted to a density of […] (bacteria) or 2x10^7 CFU/ml (yeast), as estimated by optical density measurement at 590 nm. […] Serum stability Figure S 133. […] A) peptide L2 B) peptide L3. C) peptide L3-K. D) peptide C3.

S. aureus (ATCC 12600) = test: Minimum microbicidal concentration (MMC99) assay; type: cell-based; conditions: for S. aureus MMC99 6 h / S. aureus MMC99 24 h / S. aureus MMC99 2 h: BHI diluted 1/100, 37 °C, median, n = 3; for S. aureus MMC99 2 h: lowest concentration killing 99% of inoculum, two-fold dilutions 100-1.6 μg/mL
Description: as §1

C. albicans = test: microbe, parasite or virus in culture; type: cell-based; conditions: for C. albicans MIC: 16 h
S. aureus = test: microbe, parasite or virus in culture; type: cell-based; conditions: for S. aureus MIC: 16 h
[2] = tested on: Candida albicans (ATCC 64549/CCUG31028); test: Minimum microbicidal concentration (MMC99) assay; type: cell-based, C. albicans; conditions: BHI diluted 1/100, 37 °C, median, n = 3
Description: as §1

[3] = tested on: human embryonic kidney (HEK) cells; type: cell-based
Description: (§2) To confirm the peptide selectivity toward bacteria cells, cytotoxicity assays of synthesized peptides L2, L3, L3-K, and C3 against human embryonic kidney (HEK) and hepatoblastoma (HepG2) were performed (Figure 4). The cell viability was assessed using resazurin 24 h post peptide exposure. The line at 70% cell viability marks out the threshold for cytotoxic potential compared to the negative control.
(§3) Figure 4 Cell viability assessment using the resazurin assay 24 h post peptide exposure: (a) HepG2 and (b) HEK cells were treated with various concentrations of the peptides C3, L3, L3-K, and L2. Triton-X was used as a positive control. Cells cultured in pure cell media were used as negative controls and were considered to have 100% cell viability. The line represents the threshold for cytotoxicity level of 70% of cell viability compared to the negative control. Data are presented as the mean ± SD of three biological replicates of the HepG2 cells and the mean ± SD of two biological replicates of the HEK cells.
(§4) Cytotoxicity against human embryonic kidney (HEK) and hepatoblastoma (HepG2) cell lines was assessed. Cells were grown to an initial seeding density of 10 000 cells per well. Metabolic activity was determined in a resazurin-based assay. HEK and HepG2 cells were exposed to four different concentrations of the peptides for 24 h. Treatment with Triton X-100 at 1% v/v was used as a positive control. Following this exposure period, the cells were treated with resazurin at a final concentration of 0.015 mg/mL for 3 h. The metabolic activity was then determined in an resazurin-based assay. The fluorescence intensities were quantified in a Hidex Sense microplate reader using an excitation wavelength of 544 nm and an emission wavelength of 590 nm.

[4] = tested on: hepatoblastoma (HepG2) cells; type: cell-based, human
Description: as §2, §3, §4

[5] = 37 °C, RP-HPLC; for stability in human serum: human serum from male AB plasma, 250 μL serum + 100 μL aqueous peptide solution (L2 1 mM; L3 0.9 mM; L3-K 0.7 mM; C3 0.5 mM), 0, 0.5, 1, 4, 24 h, Fmoc-Gly internal standard; for additional peaks / shoulder in chromatogram after 24 h in serum, total volume percentage: human serum, detection at 254 nm
Description: Peptide stability in serum is another limiting factor for AMPs as novel antibiotics.[30]
Peptide serum stability was performed according to D́Aloisio et al.[30] and Chen et al.[51] with some minor modifications. The serum stability was investigated using human serum (Sigma-Aldrich) from Human male AB plasma, USA origin, sterile-filtered. 250 μL serum was temperature-equilibrated at 37 °C and 100 μL aqueous peptide solution (L2: 1 mM; L3: 0.9 mM; L3-K: 0.7 mM; and C3: 0.5 mM) was added. RP-HPLC was measured at time intervals of 0, 0.5, 1, 4, and 24 h. For RP-HPLC samples, 30 μL of peptide solution was taken, 7 μL of Fmoc-Gly solution (4 mM) was added, and 2 μL of the sample was injected to HPLC. […]
Figure S 133. RP-HPLC chromatogram (gradient from 10 to 90% acetonitrile in water over 10 min at 2
ml/min, detection at 254 nm) of peptides tested for serum stability. A) peptide L2 B) peptide L3. C)
(1 picture or pasted object on this page, not shown here)

| SMILES | E. coli MIC (E. coli CCUG31246) | S. aureus MMC99 6 h (S. aureus (ATCC 12600)) | S. aureus MMC99 24 h (S. aureus (ATCC 12600)) | S. aureus MMC99 2 h (S. aureus (ATCC 12600)) | C. albicans MIC (C. albicans) | S. aureus MIC (S. aureus) | C. albicans MMC99 2 h [2] | C. albicans MMC99 6 h [2] | C. albicans MMC99 24 h [2] | further results |
| --- | --- | --- | --- | --- | --- | --- | --- | --- | --- | --- |
| CC(C)[C@H]1NC(=O)[C@@H](C)NC(=O)CCCC(=O)NCCCC[C@@H](C(N)=O)NC(=O)[C@@H](C(C)C)NC(=O)[C@@H](CC(=O)O)NC(=O)[C@H]([C@@H](C)O)NC(=O)[C@@H](CC(=O)O)NC(=O)[C@H](Cc2c[nH]c3ccccc23)NC(=O)[C@@H](C)NC1=O [C1] ([dA][dV][dA]W[dD]T[dD][dV]K-NH2; linker N-9 via Glutaryl) | >512 µg/mL | >100 µg/mL | >100 µg/mL | >100 µg/mL | >512 µg/mL | >512 µg/mL | >100 µg/mL | >100 µg/mL | >100 µg/mL | E. coli MMC99 2 h [1]: >100 µg/mL; E. coli MMC99 6 h [1]: >100 µg/mL; E. coli MMC99 24 h [1]: >100 µg/mL |
| CC(C)[C@H]1NC(=O)[C@H](CCCN)NC(=O)[C@H]([C@@H](C)O)NC(=O)[C@H](CCCN)NC(=O)[C@H](Cc2c[nH]c3ccccc23)NC(=O)[C@@H](C)NC(=O)[C@@H](C(C)C)NC(=O)[C@@H](C)NC(=O)CCCC(=O)NCCCC[C@@H](C(N)=O)NC1=O [C2] ([dA][dV][dA]W[Orn]T[Orn][dV]K-NH2; linker N-9 via Glutaryl) | >512 µg/mL | >100 µg/mL | >100 µg/mL | >100 µg/mL | >512 µg/mL | >512 µg/mL | >100 µg/mL | >100 µg/mL | >100 µg/mL | E. coli MMC99 2 h [1]: >100 µg/mL; E. coli MMC99 6 h [1]: >100 µg/mL; E. coli MMC99 24 h [1]: >100 µg/mL |
| CC(C)[C@@H](NC(=O)[C@@H](C)N)C(=O)N[C@H](C)C(=O)N[C@@H](Cc1c[nH]c2ccccc12)C(=O)N[C@H](CC(=O)O)C(=O)N[C@H](C(=O)N[C@H](CC(=O)O)C(=O)N[C@@H](C(=O)N[C@@H](CCCCN)C(N)=O)C(C)C)[C@@H](C)O [L1] (H-[dA][dV][dA]W[dD]T[dD][dV]K-NH2) | >512 µg/mL |  |  |  | >512 µg/mL | >512 µg/mL |  |  |  |  |
| CC(C)[C@@H](NC(=O)[C@H](CCCN)NC(=O)[C@@H](NC(=O)[C@H](CCCN)NC(=O)[C@H](Cc1c[nH]c2ccccc12)NC(=O)[C@@H](C)NC(=O)[C@H](NC(=O)[C@@H](C)N)C(C)C)[C@@H](C)O)C(N)=O [L2-K] (H-[dA][dV][dA]W[Orn]T[Orn][dV]-NH2) | >512 µg/mL |  |  |  | >512 µg/mL | >512 µg/mL |  |  |  |  |
| CC(C)[C@@H](NC(=O)[C@H](CCCN)NC(=O)[C@@H](NC(=O)[C@H](CCCN)NC(=O)[C@H](Cc1c[nH]c2ccccc12)NC(=O)[C@@H](C)NC(=O)[C@H](NC(=O)[C@@H](C)NC(=O)[C@@H](N)Cc1c[nH]c2ccccc12)C(C)C)[C@@H](C)O)C(=O)N[C@@H](Cc1ccc(O)c([N+](=O)[O-])c1)C(N)=O [L3-K] (H-W[dA][dV][dA]W[Orn]T[Orn][dV][Tyr(3-NO2)]-NH2) |  |  |  |  | 248 µg/mL | 418.7 µg/mL |  |  |  | cytotoxicity, cell viability HEK [3]: no cytotoxicity at any tested concentration; cytotoxicity, cell viability HepG2 [4]: no cytotoxicity at any tested concentration; stability in human serum [5]: stable after 24 h; additional peaks / shoulder in chromatogram after 24 h in serum, total volume percentage [5]: 1.3% |
| CC(C)[C@@H](NC(=O)[C@H](CCCN)NC(=O)[C@@H](NC(=O)[C@H](CCCN)NC(=O)[C@H](Cc1c[nH]c2ccccc12)NC(=O)[C@@H](C)NC(=O)[C@H](NC(=O)[C@@H](C)NC(=O)[C@@H](N)Cc1c[nH]c2ccccc12)C(C)C)[C@@H](C)O)C(=O)N[C@@H](Cc1ccc(O)c([N+](=O)[O-])c1)C(=O)N[C@@H](CCCCN)C(N)=O [L3] (H-W[dA][dV][dA]W[Orn]T[Orn][dV][Tyr(3-NO2)]K-NH2) | 64 µg/mL |  |  |  |  | 248 µg/mL |  |  |  | cytotoxicity, cell viability HEK [3]: no cytotoxicity at any tested concentration; cytotoxicity, cell viability HepG2 [4]: no cytotoxicity at any tested concentration; stability in human serum [5]: stable after 24 h; additional peaks / shoulder in chromatogram after 24 h in serum, total volume percentage [5]: 0.6% |
| Clc1ccccc1C(c1ccccc1)(c1ccccc1)n1ccnc1 [clotrimazole, reference compound] |  |  |  |  |  |  | >100 ^d μg/mL | >100 ^d μg/mL | >100 ^d μg/mL | MIC (C. albicans; Candida albicans, highest concentration 512 μg/mL, median, n = 3): 4 µg/mL (≈ 11.6 µM) |
| CC(=O)O[C@H]1C[C@@]2(C)[C@@H](C[C@@H](O)[C@H]3[C@@]4(C)CC[C@@H](O)[C@@H](C)[C@@H]4CC[C@@]32C)/C1=C(\CCC=C(C)C)C(=O)O [fusidic acid, reference compound] |  | 6.3 µg/mL | 1.6 µg/mL | 25 µg/mL |  |  |  |  |  | MMC99 for S. aureus, decreasing over time (S. aureus (ATCC 12600); 2 h to 24 h): 25 to 1.6 μg/mL; MIC (S. aureus; Staphylococcus aureus, read-out: S. aureus MIC): 0.09 µg/mL (≈ 0.174 µM) |

Source: paper PMC10788856, “Mimicking Nonribosomal Peptides from the Marine Actinomycete Streptomyces sp. H-KF8 Leads to Antimicrobial Peptides” (ACS Infectious Diseases, 2023)
